The test system of one assay is HT1080 cells. Description: Cellular assay for IDH1m inhibitors: inhibition of 2-HG production in HT1080 cells (LC-MS). The assay is classed as cell-based. To be noted: Homo sapiens, HT-1080, 48 hours. The protocol:
(§1) Cells (e.g., HT1080 or U87MG) are grown in T125 flasks in DMEM containing 10% FBS, 1× penicillin/streptomycin and 500 ug/mL G418. They are harvested by trypsin and seeded into 96 well white bottom plates at a density of 5000 cell/well in 100 ul/well in DMEM with 10% FBS. No cells are plates in columns 1 and 12. Cells are incubated overnight at 37 C in 5% CO2. The next day compounds are made up at 2× concentration and 100 ul are added to each cell well. The final concentration of DMSO is 0.2% and the DMSO control wells are plated in row G. The plates are then placed in the incubator for 48 hours. At 48 hours, 100 ul of media is removed from each well and analyzed by LC-MS for 2-HG concentrations. The cell plate is placed back in the incubator for another 24 hours. At 72 hours post compound addition, 10 mL/plate of Promega Cell Titer Glo reagent is thawed and mixed. The cell plate is removed from the incubator and allowed to equilibrate to room temperature. Then 100 ul of reagent is added to each well of media. The cell plate is then placed on an orbital shaker for 10 minutes and then allowed to sit at room temperature for 20 minutes. The plate is then read for luminescence with an integration time of 500 ms.

The target in a further assay is IDH1 R132H (Homo sapiens (Human), UniProt O75874, R132H). Briefly: Assays for IDH1 R132H Inhibitors (NADPH/aKG, resazurin detection). The assay is classed as biochemical. To be noted: IDH1 R132H enzyme, Table 3; read-out: R132H IC50. The gist of the method:
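Substrate mix held 8 uM NADPH plus 2 mM aKG; buffer was 20 mM Tris pH 7.5 with 150 mM NaCl, 10 mM MgCl2, 0.03% BSA. After 50 min room-temperature reaction, NADPH remaining was detected with 30 μM resazurin mix over 5 min.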

Another assay concerns U87R132H (U87MG) cells. Description: Cellular assay for IDH1m inhibitors: inhibition of 2-HG production in U87MG (U87R132H) cells (LC-MS). The assay is classed as cell-based. To be noted: Homo sapiens, U-87 MG, 48 hours. As for the experimental part: as §1

IDH1 R132H, sequence (O75874 whole entry R132H): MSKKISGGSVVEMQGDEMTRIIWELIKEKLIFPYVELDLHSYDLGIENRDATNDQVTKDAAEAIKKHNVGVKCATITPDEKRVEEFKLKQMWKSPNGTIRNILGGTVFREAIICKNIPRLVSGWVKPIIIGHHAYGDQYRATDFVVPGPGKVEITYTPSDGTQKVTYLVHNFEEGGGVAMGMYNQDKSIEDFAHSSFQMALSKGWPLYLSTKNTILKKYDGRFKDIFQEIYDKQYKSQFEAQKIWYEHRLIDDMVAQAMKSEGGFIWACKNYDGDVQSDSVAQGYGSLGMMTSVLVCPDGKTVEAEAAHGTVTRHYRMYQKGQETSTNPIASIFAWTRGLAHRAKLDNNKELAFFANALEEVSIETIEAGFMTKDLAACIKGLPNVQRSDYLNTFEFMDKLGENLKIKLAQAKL

The term IC50 denotes the concentration that gives 50% inhibition. Take `CC(C)[C@@H]1CN(c2nc(C3CC3)c3c(c2C#N)CC(C)(C)OC3)CCN1C(=O)CCF` [Compound 437, (R)-8-cyclopropyl-6-(4-(3-fluoropropanoyl)-3-isopropylpiperazin-1-yl)-3,3-dimethyl-3,4-dihydro-1H-pyrano[3,4-c]pyridine-5-carbonitrile]: the IC50 in the assay on HT1080 cells is 1 to 10 µM; on IDH1 R132H, under 0.5 µM; with U87R132H (U87MG) cells, 1 to 10 µM.
Regarding `[2H]C1([2H])CN(C(=O)CCOC)[C@]([2H])(C([2H])(C([2H])([2H])[2H])C([2H])([2H])[2H])CN1c1nc(C2CC2)c2c(c1C#N)CC(C)(C)OC2` [Compound 444, (R)-8-cyclopropyl-3,3-dimethyl-6-(2,2,5-trideuterio-4-(3-methoxypropanoyl)-5-(perdeuteriopropan-2-yl)piperazin-1-yl)-3,4-dihydro-1H-pyrano[3,4-c]pyridine-5-carbonitrile], the IC50 in the assay with HT1080 cells, at IDH1 R132H and with U87R132H (U87MG) cells was under 0.5 µM each time.
In the case of `CC(C)[C@@H]1CN(c2nc(C3CC3)c3c(c2C#N)CC(C)(C)OC3)CCN1C(=O)CC(F)(F)F` [Compound 423, (R)-8-cyclopropyl-6-(3-isopropyl-4-(3,3,3-trifluoropropanoyl)piperazin-1-yl)-3,3-dimethyl-3,4-dihydro-1H-pyrano[3,4-c]pyridine-5-carbonitrile], the half-maximal inhibitory concentration (IC50) in the assay on HT1080 cells was 1 to 10 µM; on IDH1 R132H, under 0.5 µM; in the assay with U87R132H (U87MG) cells it was 0.5 to 1 µM.
As to `CC1(C)Cc2c(C#N)c(N3CCN(C(=O)c4ccoc4)C(C4CC4)C3)nc(C3CC3)c2CO1` (centres unmarked) [Compound 426, 8-cyclopropyl-6-(3-cyclopropyl-4-(furan-3-carbonyl)piperazin-1-yl)-3,3-dimethyl-3,4-dihydro-1H-pyrano[3,4-c]pyridine-5-carbonitrile], the IC50 was under 0.5 µM in the assay on HT1080 cells, under 0.5 µM on IDH1 R132H and 0.5 to 1 µM in the assay with U87R132H (U87MG) cells.
As for `C=CC(=O)N1CCc2c(C3CC3)nc(N3CCN(C(=O)C4CC4)[C@H](C4CC4)C3)c(C#N)c2C1` [Compound 482, (R)-6-acryloyl-3-(4-(cyclopropanecarbonyl)-3-cyclopropylpiperazin-1-yl)-1-cyclopropyl-5,6,7,8-tetrahydro-2,6-naphthyridine-4-carbonitrile], the IC50 with HT1080 cells and in the assay with U87R132H (U87MG) cells was under 0.5 µM throughout.
Consider `[2H]C([2H])([2H])C([2H])(C([2H])([2H])[2H])C1([2H])CN(c2nc(C3CC3)c3c(c2C#N)CC(C)(C)OC3)CCN1C(=O)CC(F)(F)F` (stereo in doubt) [Compound 451, (R)-8-cyclopropyl-6-(3-deuterio-3-(perdeuteriopropan-2-yl)-4-(3,3,3-trifluoropropanoyl)piperazin-1-yl)-3,3-dimethyl-3,4-dihydro-1H-pyrano[3,4-c]pyridine-5-carbonitrile], for which the figures for the concentration for half-maximal inhibition (IC50) with HT1080 cells, at IDH1 R132H and with U87R132H (U87MG) cells were 1 to 10 µM, under 0.5 µM and 1 to 10 µM, respectively.
Turning to `[2H]C([2H])([2H])C([2H])(C([2H])([2H])[2H])[C@@]1([2H])N(C(=O)CC(F)(F)F)C([2H])([2H])C([2H])([2H])N(c2nc(C3CC3)c3c(c2C#N)CC(C)(C)OC3)C1([2H])[2H]` [Compound 452, (R)-8-cyclopropyl-6-(2,2,3,3,5,6,6-heptadeuterio-5-(perdeuteriopropan-2-yl)-4-(3,3,3-trifluoropropanoyl)piperazin-1-yl)-3,3-dimethyl-3,4-dihydro-1H-pyrano[3,4-c]pyridine-5-carbonitrile], the IC50 with HT1080 cells is 1 to 10 µM; at IDH1 R132H, under 0.5 µM; in the assay with U87R132H (U87MG) cells, 0.5 to 1 µM.
On the same counts, the results for `CSCC(=O)N1CCN(c2nc(C3CC3)c3c(c2C#N)CC(C)(C)OC3)C[C@H]1C(C)C` [Compound 445, (R)-8-cyclopropyl-6-(3-isopropyl-4-(2-(methylthio)acetyl)piperazin-1-yl)-3,3-dimethyl-3,4-dihydro-1H-pyrano[3,4-c]pyridine-5-carbonitrile] are under 0.5 µM, under 0.5 µM and under 0.5 µM.
For `CC(=O)CCC(=O)N1CCN(c2nc(C3CC3)c3c(c2C#N)CC(C)(C)OC3)C[C@H]1C(C)C` [Compound 428, (R)-8-cyclopropyl-6-(3-isopropyl-4-(4-oxopentanoyl)piperazin-1-yl)-3,3-dimethyl-3,4-dihydro-1H-pyrano[3,4-c]pyridine-5-carbonitrile] the same measures were 1 to 10 µM, under 0.5 µM and under 0.5 µM.
On the same counts, the results for `CC(C)[C@@H]1CN(c2nc(C3CC3)c3c(c2C#N)CC(C)(C)OC3)CCN1C(=O)[C@@H]1C[C@H]1CO` [Compound 462, 8-Cyclopropyl-6-((R)-4-((1R,2R)-2-(hydroxymethyl)cyclopropanecarbonyl)-3-isopropylpiperazin-1-yl)-3,3-dimethyl-3,4-dihydro-1H-pyrano[3,4-c]pyridine-5-carbonitrile] are 0.5 to 1 µM, under 0.5 µM and 0.5 to 1 µM.
For the molecule `CC(C)[C@@H]1CN(c2nc(C3CC3)c3c(c2C#N)CC(C)(C)OC3)CCN1C(=O)c1ccon1` [Compound 427, (R)-8-cyclopropyl-6-(3-isopropyl-4-(isoxazole-3-carbonyl)piperazin-1-yl)-3,3-dimethyl-3,4-dihydro-1H-pyrano[3,4-c]pyridine-5-carbonitrile], the values for the half-inhibitory concentration (IC50) in the assay on HT1080 cells, at IDH1 R132H and in the assay on U87R132H (U87MG) cells were 1 to 10 µM, 0.5 to 1 µM and 1 to 10 µM, respectively.
In the case of `C=CC(=O)N1CCc2c(C#N)c(N3CCN(C(=O)CCOC)[C@H](C4CC4)C3)nc(C3CC3)c2C1` [Compound 485, (R)-7-acryloyl-1-cyclopropyl-3-(3-cyclopropyl-4-(3-methoxypropanoyl)piperazin-1-yl)-5,6,7,8-tetrahydro-2,7-naphthyridine-4-carbonitrile], the IC50 in the assay on HT1080 cells, at IDH1 R132H and in the assay with U87R132H (U87MG) cells was under 0.5 µM each time.
Consider `CC1(C)Cc2c(C#N)c(N3CCN(C(=O)CC(F)(F)F)[C@H](C4CC4)C3)nc(C3CC3)c2CO1` [Compound 435, (R)-8-cyclopropyl-6-(3-cyclopropyl-4-(3,3,3-trifluoropropanoyl)piperazin-1-yl)-3,3-dimethyl-3,4-dihydro-1H-pyrano[3,4-c]pyridine-5-carbonitrile], for which the concentration for half-maximal inhibition (IC50) in the assay on HT1080 cells, at IDH1 R132H and in the assay with U87R132H (U87MG) cells was under 0.5 µM in each case.
Consider `C=CC(=O)N1CCc2c(C3CC3)nc(N3CCN(C(=O)CCOC)[C@H](C4CC4)C3)c(C#N)c2C1` [Compound 483, (R)-6-acryloyl-1-cyclopropyl-3-(3-cyclopropyl-4-(3-methoxypropanoyl)piperazin-1-yl)-5,6,7,8-tetrahydro-2,6-naphthyridine-4-carbonitrile], for which the half-inhibitory concentration (IC50) with HT1080 cells, on IDH1 R132H and in the assay with U87R132H (U87MG) cells was under 0.5 µM in each case.
Regarding `COCCC(=O)N1CCN(c2nc(C3CC3)c3c(c2C#N)CN(S(C)(=O)=O)CC3)C[C@H]1C1CC1` [Compound 487, (R)-1-cyclopropyl-3-(3-cyclopropyl-4-(3-methoxypropanoyl)piperazin-1-yl)-6-(methylsulfonyl)-5,6,7,8-tetrahydro-2,6-naphthyridine-4-carbonitrile], the 50% inhibitory concentration (IC50) with HT1080 cells and with U87R132H (U87MG) cells was 1 to 10 µM in each case.
For the molecule `C#CC(=O)N1CCc2c(C#N)c(N3CCN(C(=O)CCOC)[C@H](C4CC4)C3)nc(C3CC3)c2C1` [Compound 488, (R)-1-cyclopropyl-3-(3-cyclopropyl-4-(3-methoxypropanoyl)piperazin-1-yl)-′7-propioloyl-5,6,7,8-tetrahydro-2,7-naphthyridine-4-carbonitrile], the IC50 in the assay with HT1080 cells and in the assay with U87R132H (U87MG) cells was under 0.5 µM throughout.
On to `C=CC(=O)N1CCc2c(C#N)c(N3CCN(C(=O)C4CC4)[C@H](C4CC4)C3)nc(C3CC3)c2C1` [Compound 489, (R)-7-acryloyl-3-(4-(cyclopropanecarbonyl)-3-cyclopropylpiperazin-1-yl)-1-cyclopropyl-5,6,7,8-tetrahydro-2,7-naphthyridine-4-carbonitrile], for which the half-maximal inhibitory concentration (IC50) with HT1080 cells is 0.5 to 1 µM; on IDH1 R132H it was under 0.5 µM.
As to `C=C(F)C(=O)N1CCc2c(C3CC3)nc(N3CCN(C(=O)CCOC)[C@H](C4CC4)C3)c(C#N)c2C1` [Compound 492], the IC50 with HT1080 cells is 1 to 10 µM; at IDH1 R132H it was 0.5 to 1 µM.
Consider `CC(C)[C@@H]1CN(c2nc(C3CC3)c3c(c2C#N)CC(C)(C)OC3)CCN1C(=O)CCC(=O)OCCO` [Compound 458, (R)-2-hydroxyethyl 4-(4-(5-cyano-8-cyclopropyl-3,3-dimethyl-3,4-dihydro-1H-pyrano[3,4-c]pyridin-6-yl)-2-isopropylpiperazin-1-yl)-4-oxobutanoate], for which the concentration for half-maximal inhibition (IC50) in the assay on HT1080 cells is 0.5 to 1 µM; with U87R132H (U87MG) cells, under 0.5 µM.
As for `C=CC(=O)N1CCc2c(C#N)c(N3CCN(C(=O)CC(F)(F)F)[C@H](C4CC4)C3)nc(C3CC3)c2C1` [Compound 490, (R)-7-acryloyl-1-cyclopropyl-3-(3-cyclopropyl-4-(3,3,3-trifluoropropanoyl)piperazin-1-yl)-5,6,7,8-tetrahydro-2,7-naphthyridine-4-carbonitrile], the half-inhibitory concentration (IC50) in the assay on HT1080 cells is 0.5 to 1 µM; on IDH1 R132H, under 0.5 µM.

The values above are taken from US9662327B2 (AGIOS PHARMACEUTICALS, INC, priority 2011, dated 2017).
